PubChem BioAssay AID1918940 (Molecular Pharmacology Branch, DTP, NCI, 2023)

Test system: NCI-H211 complex spheroid viability
Assay: Anticancer human tumor NCI-H211 cell line growth inhibition [LSD1];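 also: luminescent viability read after seven days of drug exposure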;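 as to viability, T/C: 100% = DMSO vehicle control viability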
Conditions: for IC50: curve of first compound; for viability, T/C: stronger effect = lower value
Method in brief: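 Complex spheroids of tumor cells with HUVEC and human MSCs, exposed to iadademstat combined with other agents. Each agent tested in half-log steps from near clinical Cmax (else 10 microM top), DMSO ≤0.25%.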

[1] = second compound 0.1 µM, first compound 0.00316 µM
[2] = second compound 0.1 µM, first compound 0.01 µM
[3] = second compound 0.1 µM, first compound 0.0316 µM
[4] = second compound 0.1 µM, first compound 0.1 µM
[5] = second compound 0.1 µM, first compound 0.316 µM
[6] = second compound 0.1 µM, first compound 1 µM
[7] = second compound 0.316 µM, first compound 0.00316 µM
[8] = second compound 0.316 µM, first compound 0.01 µM
[9] = second compound 0.316 µM, first compound 0.0316 µM
[10] = second compound 0.316 µM, first compound 0.1 µM
[11] = second compound 0.316 µM, first compound 0.316 µM
[12] = second compound 0.316 µM, first compound 1 µM
[13] = second compound 1 µM, first compound 0.00316 µM
[14] = second compound 1 µM, first compound 0.01 µM
[15] = second compound 1 µM, first compound 0.0316 µM
[16] = second compound 1 µM, first compound 0.1 µM
[17] = second compound 1 µM, first compound 0.316 µM
[18] = second compound 1 µM, first compound 1 µM
[19] = second compound 3.16 µM, first compound 0.00316 µM
[20] = second compound 3.16 µM, first compound 0.01 µM
[21] = second compound 3.16 µM, first compound 0.0316 µM
[22] = second compound 3.16 µM, first compound 0.1 µM
[23] = second compound 3.16 µM, first compound 0.316 µM
[24] = second compound 3.16 µM, first compound 1 µM
[25] = second compound 10 µM, first compound 0.00316 µM
[26] = second compound 10 µM, first compound 0.01 µM
[27] = second compound 10 µM, first compound 0.0316 µM
[28] = second compound 10 µM, first compound 0.1 µM
[29] = second compound 10 µM, first compound 0.316 µM
[30] = second compound 10 µM, first compound 1 µM
[31] = second compound 0.1 µM, first compound 3.16 µM
[32] = second compound 0.1 µM, first compound 10 µM
[33] = second compound 0.316 µM, first compound 3.16 µM
[34] = second compound 0.316 µM, first compound 10 µM
[35] = second compound 1 µM, first compound 3.16 µM
[36] = second compound 1 µM, first compound 10 µM
[37] = second compound 3.16 µM, first compound 3.16 µM
[38] = second compound 3.16 µM, first compound 10 µM
[39] = second compound 10 µM, first compound 3.16 µM
[40] = second compound 10 µM, first compound 10 µM

Structure (SMILES) | IC50 (second compound 0.1 µM) | IC50 (second compound 0.316 µM) | IC50 (second compound 1 µM) | IC50 (second compound 3.16 µM) | IC50 (second compound 10 µM) | viability, T/C [3] | viability, T/C [4] | viability, T/C [5] | viability, T/C [6] | viability, T/C [9] | viability, T/C [10] | viability, T/C [11] | viability, T/C [12] | viability, T/C [15] | viability, T/C [16] | viability, T/C [17] | viability, T/C [18] | viability, T/C [21] | viability, T/C [22] | viability, T/C [23] | also measured
O=C(C=Cn1cnc(-c2cc(C(F)(F)F)cc(C(F)(F)F)c2)n1)NNc1cnccn1 + NC1CCC(NC2CC2c2ccccc2)CC1 | < 0.00316 µM | < 0.00316 µM | < 0.00316 µM | < 0.00316 µM | < 0.00316 µM | 11.6% | 6.71% | 2.42% | 1.48% | 11.2% | 6.77% | 2.16% | 8.93% | 9.68% | 5.65% | 2.43% | 1.5% | 11% | 5.74% | 2.43% | viability, T/C [1]: 33.4%; viability, T/C [2]: 20.6%; viability, T/C [7]: 40.1%; viability, T/C [8]: 23.5%; viability, T/C [13]: 41.4%; viability, T/C [14]: 21.7%; viability, T/C [19]: 32.9%; viability, T/C [20]: 22.1%; viability, T/C [24]: 1.51%; viability, T/C [25]: 24.4%; viability, T/C [26]: 15.7%; viability, T/C [27]: 7.59%; viability, T/C [28]: 3.68%; viability, T/C [29]: 1.66%; viability, T/C [30]: 1.3%
CC1COCCN1c1cc(-c2ccnn2C)c2ccnc(-c3ccn[nH]3)c2n1 (stereo not given) + NC1CC1c1ccc(-c2cccc(O)c2)cc1 | 0.00378 µM | 0.00351 µM | < 0.00316 µM | < 0.00316 µM | < 0.00316 µM | 6.31% | 4.68% | 3.56% | 3.19% | 6.09% | 4.56% | 4.43% | 4.27% | 6.6% | 4.61% | 7.13% | 4.1% | 6.53% | 4.92% | 4.52% | viability, T/C [1]: 56.3%; viability, T/C [2]: 16.8%; viability, T/C [7]: 53.6%; viability, T/C [8]: 14%; viability, T/C [13]: 47.7%; viability, T/C [14]: 16.8%; viability, T/C [19]: 43.6%; viability, T/C [20]: 14.1%; viability, T/C [24]: 4.59%; viability, T/C [25]: 34.5%; viability, T/C [26]: 14.5%; viability, T/C [27]: 7.33%; viability, T/C [28]: 4.8%; viability, T/C [29]: 4.76%; viability, T/C [30]: 6.03%
CC1(C)CCC(CN2CCN(c3ccc(C(=O)NS(=O)(=O)c4ccc(NCC5CCOCC5)c([N+](=O)[O-])c4)c(Oc4cnc5[nH]ccc5c4)c3)CC2)=C(c2ccc(Cl)cc2)C1 + NC1CCC(NC2CC2c2ccccc2)CC1 | 5.79 µM | 5.77 µM | > 10 µM | < 0.0316 µM | < 0.0316 µM | 55.3% | 61.6% | 73.5% | 102% | 64.8% | 60.5% | 71.2% | 84.1% | 48.6% | 59% | 57.6% | 81.3% | 41.9% | 44.4% | 57.9% | viability, T/C [31]: 86.2%; viability, T/C [32]: 26.8%; viability, T/C [33]: 101%; viability, T/C [34]: 26%; viability, T/C [35]: 93.5%; viability, T/C [36]: 24.7%; viability, T/C [24]: 75.1%; viability, T/C [37]: 88.4%; viability, T/C [38]: 21.1%; viability, T/C [27]: 25.1%; viability, T/C [28]: 24.9%; viability, T/C [29]: 30%; viability, T/C [30]: 33.8%; viability, T/C [39]: 52.6%; viability, T/C [40]: 19.8%
O=C(c1cc(Cc2n[nH]c(=O)c3ccccc23)ccc1F)N1CCN(C(=O)C2CC2)CC1 + NC1CC1c1ccc(-c2cccc(O)c2)cc1 | < 0.0316 µM | < 0.0316 µM | < 0.0316 µM | < 0.0316 µM | < 0.0316 µM | 47.4% | 25% | 7.94% | 5.7% | 48.9% | 24.5% | 8.13% | 5.19% | 44% | 22% | 7.69% | 5.3% | 49.2% | 19.5% | 8.34% | viability, T/C [31]: 6.16%; viability, T/C [32]: 5.03%; viability, T/C [33]: 4.85%; viability, T/C [34]: 5.84%; viability, T/C [35]: 6.41%; viability, T/C [36]: 5.15%; viability, T/C [24]: 5.75%; viability, T/C [37]: 6.96%; viability, T/C [38]: 5.88%; viability, T/C [27]: 34.4%; viability, T/C [28]: 17.2%; viability, T/C [29]: 8.43%; viability, T/C [30]: 5.92%; viability, T/C [39]: 6.26%; viability, T/C [40]: 6.28%
